The assay deals with T1, trypsin.
T1 construct: gene PRSS1
The experiment in a line: casein digestion, absorbance at […] nm. The following applies: casein 0.8%, 20 mM Tris-HCl pH 7.4, 37 °C, 20 min. In kind it is biochemical.

For the molecule `CC(=O)Oc1ccccc1C(=O)O` [acetylsalicylic acid], the “Acetylsalicylic Acid” value amounted to 5.11 ± 0.97 µg/mL.

The values above are taken from PMC7926928, “Preliminary Investigation of the Antioxidant, Anti-Diabetic, and Anti-Inflammatory Activity of Enteromorpha intestinalis Extracts” (Molecules, 2021).
